Assay results taken from article PMC4408887 (Nature chemistry, 2015).
Positions of bridges follow the written chain, without caps; N, C: chain ends. Non-standard residues stand in square brackets, D forms with d. Residues, ends and D or L forms follow the SMILES beside them. Triazole bridges read from a SMILES are 1,4-linked. Chains are numbered I, II in the order given. No end group written: not given here. *: point of attachment. Biotin = O=C1N[C@H]2[C@H](CS[C@H]2CCCCC(=O)*)N1; Lys(N3) = [N-]=[N+]=NCCCC[C@H](N)C(=O)O; PEG5 = NCCOCCOCCOCCOCCOCCC(=O)O; Pra = C#CC[C@H](N)C(=O)O

What was measured:
[1] = system: Akt1^E17K relative to Akt2^E17K; assay: Point ELISA, Akt1 and Akt2 isoforms; format: binding; settings: 100 nM protein, triplicate
WT or E17K GST-Akt1 = assay: Point ELISA in human serum; format: binding; settings: 150 nM protein, 0%, 1% and 2% human serum in TBS
[2] = system: E17K versus WT PH Domain of Akt1 - PIP3 interaction; assay: PIP3 agarose inhibition, E17K relative to WT; format: biochemical; settings: triligand 0.1-1000 eq
[3] = target: WT 33-mer PH Domain epitope of Akt1 (Homo sapiens, UniProt P31749); assay: Fluorescence polarization binding to WT 33-mer epitope
[4] = target: label-modified yleaf peptide used in fluorescence polarization; assay: fluorescence polarisation
full length Akt1 (WT) = full length Akt1 (WT) (UniProt P31749 1-480); assay: fluorescence polarisation
full length Akt1^E17K = full length Akt1^E17K (UniProt P31749 1-480, E17K); assay: fluorescence polarisation

CC[C@@H](C)[C@@H](NC(=O)CCOCCOCCOCCOCCOCCNC(=O)CCCC[C@@H]1SC[C@@H]2NC(=O)N[C@@H]21)C(=O)N[C@@H](C(=O)N[C@H](CC(=O)O)C(=O)N[C@H](C)C(=O)N[C@H](CCC(=O)O)C(=O)N[C@@H](Cc1cn(CCCC[C@H](NC(C)=O)C(=O)N[C@H](Cc2ccc(O)cc2)C(=O)N[C@H](CC(C)C)C(=O)N[C@H](CCC(=O)O)C(=O)N[C@H](C)C(=O)N[C@H](Cc2ccccc2)C(=O)N[C@@H](Cc2cn(CCCC[C@H](NC(C)=O)C(=O)N[C@H](Cc3ccc(O)cc3)C(=O)N[C@H](CCCCN)C(=O)N[C@H](CO)C(=O)N[C@H](Cc3ccc(O)cc3)C(N)=O)nn2)C(=O)O)nn1)C(=O)O)C(C)C [triligand] (I: Ac-[Lys(N3)][dY][dL][dE][dA][dF][Pra]-OH / II: {Biotin-PEG5}-[dI][dV][dD][dA][dE][Pra]-OH / III: Ac-[Lys(N3)][dY][dK][dS][dY]-NH2; triazole I:1-II:6, I:7-III:1; C-terminus assumed)
preference for Akt1^E17K relative to Akt2^E17K [1]: slight preference for Akt1^E17K relative to the Akt2^E17K | reduction in binding efficiency in human serum (WT or E17K GST-Akt1): very little reduction in binding efficiency | selective inhibition of E17K relative to WT [2]: significant selective inhibition of the E17K mutant relative to the WT

CC(C)C[C@@H](NC(=O)[C@H](N)Cc1ccc(O)cc1)C(=O)N[C@H](CCC(=O)O)C(=O)N[C@H](C)C(=O)N[C@H](Cc1ccccc1)C(N)=O [yleaf] (H-[dY][dL][dE][dA][dF]-NH2)
Kd [3]: 2800 ± 840 nM

E17K mutant 6-His-tagged 33-mer PH Domain peptide fragment of Akt1 (from UniProt P31749 1-33)
Kd [4]: 328 nM

WT 6-His-tagged 33-mer PH Domain peptide fragment of Akt1 (from UniProt P31749 1-33)
Kd [4]: 2800 nM

[dY][dL][dE][dA][dF] (also: label-modified, label not given here) [label-modified yleaf peptide used in fluorescence polarization]
Kd (full length Akt1 (WT)): > 1000 nM | Kd (full length Akt1^E17K): 54 ± 7 nM
